From patent US4430427A, “Red absorbing combination of alcohol oxidase and an azide compound” (Phillips Petroleum Company, priority 1980, dated 1984)
Like-named read-outs stand apart in the source and are kept apart here.

Experiments:
[1] = target: T1, Pichia alcohol oxidase (Komagataella phaffii, UniProt F2QY27); details: crude enzyme saturated with salt crystals; assayed 1-2 minutes later
T1 sequence (F2QY27 2-663 limits assumed): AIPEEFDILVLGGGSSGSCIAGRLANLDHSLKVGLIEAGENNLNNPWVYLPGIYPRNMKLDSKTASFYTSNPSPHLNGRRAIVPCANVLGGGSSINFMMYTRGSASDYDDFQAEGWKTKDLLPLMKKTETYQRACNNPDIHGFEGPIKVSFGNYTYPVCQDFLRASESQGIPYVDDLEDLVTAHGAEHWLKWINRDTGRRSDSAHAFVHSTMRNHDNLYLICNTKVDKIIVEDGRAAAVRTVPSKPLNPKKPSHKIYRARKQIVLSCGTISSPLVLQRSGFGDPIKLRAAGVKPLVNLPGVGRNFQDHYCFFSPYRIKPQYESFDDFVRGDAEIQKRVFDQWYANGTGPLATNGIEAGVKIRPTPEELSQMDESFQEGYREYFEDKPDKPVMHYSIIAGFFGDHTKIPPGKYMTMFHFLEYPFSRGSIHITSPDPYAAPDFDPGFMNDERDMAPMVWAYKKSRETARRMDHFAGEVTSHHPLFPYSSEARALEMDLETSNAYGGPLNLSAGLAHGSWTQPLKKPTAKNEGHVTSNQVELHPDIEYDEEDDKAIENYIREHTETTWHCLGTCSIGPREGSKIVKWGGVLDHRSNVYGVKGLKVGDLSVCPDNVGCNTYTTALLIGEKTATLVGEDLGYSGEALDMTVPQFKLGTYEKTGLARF
Method: The alcohol oxidase activity for reaction with methanol was determined by the following assay procedure (dye-peroxidase method). A dye-buffer mixture was prepared by mixing 0.1 mL of an o-dianisidine solution (1 weight % o-dianisdine in water) with 12 mL of aerated 0.1 M sodium phosphate buffer (pH 7.5). The assay mixture was prepared with 2.5 mL of the dye-buffer mixture, 50 μL of methanol, 10 μL of a peroxidase solution (1 mg of horse-radish peroxidase-Sigma, Type II), and 25 μL of the alcohol oxidase solution. The assay mixture was maintained at 25° C. in a 4×1×1 cm cuvette and the increase in absorbance by the dye at 460 nm was recorded for 2 to 4 minutes. The enzyme activity was calculated by [formula] wherein 11.5 is a factor based on a standard curve prepared with known aliquots of H2 O2 and ΔA is the change in absorbance during the experimental interval.

[2] = target: T1, Pichia alcohol oxidase
Method: The samples are allowed to stand at room temperature for 15 minutes. Color and enzyme activity are monitored at that time.

[3] = target: Hansenula polymorpha alcohol oxidase (Pichia angusta, UniProt P04841); details: 1 mL crude Hansenula polymorpha enzyme preparation, a few crystals (one mg)
Sequence of Hansenula polymorpha alcohol oxidase (P04841 2-664 limits assumed): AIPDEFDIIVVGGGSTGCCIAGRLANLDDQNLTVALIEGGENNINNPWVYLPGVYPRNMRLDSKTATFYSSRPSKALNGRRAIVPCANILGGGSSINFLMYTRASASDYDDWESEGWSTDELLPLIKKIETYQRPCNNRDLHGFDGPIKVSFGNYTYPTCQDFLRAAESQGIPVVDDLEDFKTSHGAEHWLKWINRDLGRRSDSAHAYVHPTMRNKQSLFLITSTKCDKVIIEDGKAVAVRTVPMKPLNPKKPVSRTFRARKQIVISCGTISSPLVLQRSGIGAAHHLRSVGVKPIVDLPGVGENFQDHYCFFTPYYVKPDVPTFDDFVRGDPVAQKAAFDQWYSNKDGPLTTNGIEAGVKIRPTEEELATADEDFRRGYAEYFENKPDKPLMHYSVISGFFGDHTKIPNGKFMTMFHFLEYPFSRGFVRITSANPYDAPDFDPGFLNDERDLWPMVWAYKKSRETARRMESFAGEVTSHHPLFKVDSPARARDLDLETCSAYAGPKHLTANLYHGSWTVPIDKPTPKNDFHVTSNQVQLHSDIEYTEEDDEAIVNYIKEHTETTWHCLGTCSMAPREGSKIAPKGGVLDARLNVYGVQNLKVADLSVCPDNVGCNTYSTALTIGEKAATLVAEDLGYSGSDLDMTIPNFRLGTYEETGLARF
Method: Fermentation effluent from the aerobic fermentation of Hansenula polymorpha (prepared as described in Example II) was adjusted to pH 7.5 with concentrated ammonium hydroxide. Sample was homogenized and disrupted on a Dyno-Mill Model KDL using a 0.6 L vessel in a continuous operation at 30° C. using belt combination #3 and a flow of 20-30 mL/hr. The beads were lead-free glass beads with a diameter of 0.3-0.5 mm. The resulting homogenate was centrifuged for 20 minutes at 10,000×g to yield a cell-free supernatant.
One mL of this crude enzyme preparation was mixed with a few crystals (qualitative--one mg) of NaN3 is a test tube.

[4] = target: T2, purified Pichia alcohol oxidase (Komagataella phaffii, UniProt F2QY27); test: biochemical; type: biochemical, Pichia pastoris
T2 construct: saturated solution of purified Pichia alcohol oxidase; endogenous in cells
T2 sequence (F2QY27 2-663 limits assumed): T1 sequence (F2QY27 2-663 limits assumed)
Method: A series of solutions were prepared by combining 3.9 mL standard phosphate buffer (pH 7.5) having NaN3 (g/l) as set forth in Table 8, 15 μL saturated solution of purified Pichia alcohol oxidase, and 50 μL methanol solution (% V/V in H2 O). Reaction velocity V (rate of methanol oxidation in the presence of alcohol oxidase) was monitored by a dissolved oxygen probe by following oxygen consumption (oxygen is consumed as alcohol substrate, S, is oxidized in the presence of the enzyme).

[5] = target: alcohol oxidase (Komagataella phaffii, UniProt F2QY27)
Method: 3 mL of purified enzyme containing 3 mg/mL enzyme (crystallized as described in Example I) were placed in a 1-cm quartz cuvette. The solution was scanned from 350-550 nm.
where [formula] ΔA522 =change in absorbance at 522 nm upon NaN3 addition, and
ΔA522^max =total change in absorbance at 522 nm upon saturation of enzyme solution with NaN3.

For [Cl-].[K+] [KCl], the “Relative Enz. Act.” value [1] was 2.
For O=P([O-])(O)O.[K+] [KH2 PO4], the “Relative Enz. Act.” value [1] was 0.
In the case of N#CS [KSCN], the “EU/mL* at 15 min.” value [2] is reported as 25 EU/mL.
With [Cl-].[Li+] [LiCl] the “Relative Enz. Act.” value [1] was 0.
With [Cl-].[Cl-].[Mg+2] [MgCl2] the “Relative Enz. Act.” value [1] was 0.
With O=P([O-])([O-])O.[Na+].[Na+] [Na2 HPO4] the “Relative Enz. Act.” value [1] was 4.
CC(=O)O [NaAc] was tested, and the “Relative Enz. Act.” value [1] was 4.
In the case of [Cl-].[Na+] [NaCl], the “Relative Enz. Act.” value [1] is reported as 1.
With O=P([O-])(O)O.[Na+] [NaH2 PO4] the “Relative Enz. Act.” value [1] was 0.
With [N-]=[N+]=[N-].[Na+] [NaN3, sodium azide] the “Color at 15 min.” value ([2]; a few crystals (about 1 mg) added to 1 mL purified enzyme solution, room temperature) was “Red immediately”, the “EU/mL* at 15 min.” value ([2]; a few crystals (about 1 mg) added to 1 mL purified enzyme solution, room temperature, 15 min) was 75 EU/mL and the “Color on mixing with crude enzyme preparation” value [3] was “Red color forms upon mixing”. For the same compound, the 1/V ([4]; NaN3 .0001 g/l, MeOH .004 M) was “.0488”, the 1/V ([4]; NaN3 .0001 g/l, MeOH .016 M) was “.04” and the 1/V ([4]; NaN3 .0002 g/l, MeOH .0005 M) was “.2632”. For the same compound, the 1/V ([4]; NaN3 .0002 g/l, MeOH .001 M) was “.1429”, the 1/V ([4]; NaN3 .0002 g/l, MeOH .002 M) was “.0725” and the 1/V ([4]; NaN3 .0002 g/l, MeOH .004 M) was “.0588”. For the same compound, the 1/V ([4]; NaN3 .0002 g/l, MeOH .008 M) was “.0455”, the 1/V ([4]; NaN3 .0002 g/l, MeOH .016 M) was “.0377” and the 1/V ([4]; NaN3 .0005 g/l, MeOH .0005 M) was “.625”. The 1/V ([4]; NaN3 .0005 g/l, MeOH .001 M) was “.4”, the 1/V ([4]; NaN3 .0005 g/l, MeOH .002 M) was “.1667” and the 1/V ([4]; NaN3 .0005 g/l, MeOH .004 M) was “.1111”. The 1/V ([4]; NaN3 .0005 g/l, MeOH .008 M) was “.0813”, the 1/V ([4]; NaN3 .0005 g/l, MeOH .016 M) was “.0602” and the 1/V ([4]; NaN3 .001 g/l, MeOH .001 M) was 1. The 1/V ([4]; NaN3 .001 g/l, MeOH .002 M) was “.333”, the 1/V ([4]; NaN3 .001 g/l, MeOH .004 M) was “.1667” and the 1/V ([4]; NaN3 .001 g/l, MeOH .008 M) was “.111”. The 1/V ([4]; NaN3 .001 g/l, MeOH .016 M) was “.0645”, the Ki ([4]; estimated from 1/V vs 1/[S] plots, pH 7.5, read-out: binding constant for NaN3 inhibitor, Ki) was 6 µM and the type of inhibition ([4]; from 1/V vs 1/[S] plots) was “linear, mixed-type inhibition”. For the same compound, the “fractional saturation, .PHI.” value ([5]; Excess (solid crystals) NaN3) was 1.000, the “fractional saturation, .PHI.” value ([5]; Moles N3^-/Moles Enzyme 1.15) was “.167” and the “fractional saturation, .PHI.” value ([5]; Moles N3^-/Moles Enzyme 1.54) was “.207”. The “fractional saturation, .PHI.” value ([5]; Moles N3^-/Moles Enzyme 1.92) was “.259”, the “fractional saturation, .PHI.” value ([5]; Moles N3^-/Moles Enzyme 2.31) was “.309” and the “fractional saturation, .PHI.” value ([5]; Moles N3^-/Moles Enzyme 3.02) was “.407”. For the same compound, the “fractional saturation, .PHI.” value ([5]; Moles N3^-/Moles Enzyme 3.85) was “.475”, the “fractional saturation, .PHI.” value ([5]; Moles N3^-/Moles Enzyme 4.61) was “.525” and the “fractional saturation, .PHI.” value ([5]; Moles N3^-/Moles Enzyme 5.38) was “.580”. The “fractional saturation, .PHI.” value ([5]; Moles N3^-/Moles Enzyme 6.25) was “.630”, the “fractional saturation, .PHI.” value ([5]; Moles N3^-/Moles Enzyme 6.92) was “.679” and the “fractional saturation, .PHI.” value ([5]; Moles N3^-/Moles Enzyme .38) was “.062”. For the same compound, the “fractional saturation, .PHI.” value ([5]; Moles N3^-/Moles Enzyme .77) was “.105” and the “number of azide binding sites (extrapolation of the stoichiometric line to the baseline)” value ([5]; plot of .PHI. vs ligand/enzyme mole ratio) was 7.6 moles of azide per mole of enzyme.
For CO [methanol], the Kd ([4]; estimated from 1/V vs 1/[S] plots, pH 7.5, read-out: binding constant for methanol substrate, KS) was 600 µM.
